{
  "source": "patent US20250129045A1",
  "about": "“SMALL MOLECULE PIM AND MTOR KINASE INHIBITOR AND METHODS OF USE THEREOF” (Arizona Board of Regents on Behalf of the University of …, priority 2022, published 2025)",
  "key": {"[1]": {"system": "A549 lung cancer", "assay": "A549 lung cancer growth (crystal violet, 7 days)", "assay_type": "cell-based", "conditions": "7 days of growth", "description": "Cells were plated at 1000 cells per well and 24 h later treated with GRG compounds. After 7 days of growth, tumor cells were fixed with 4% paraformaldehyde, stained with 0.5% crystal violet in methanol and lysed in SDS. The absorbance of six samples treated with each compound or DMSO control was read at 570 nm. The error bars represent the Standard Deviation of these measurements"}, "[2]": {"system": "Pim kinase", "assay": "Pim substrate phosphorylation in LNCaP prostate cancer cells (Western blot)", "assay_type": "cell-based", "conditions": "serum-starved conditions", "description": "Right: LNCaP and LNCaP stably expressed Pim1 cells were treated with DMSO and GRG-1-34 ([…]) without FBS medium for 6 h. Lysates (25 μg) were subjected to western blotting with the antibodies for P-IRS1 (S1101), IRS1, P-elF4B (S406), elF4B, P-EDC3 (S161), EDC3, Pim1, and β-Actin.\nImmunoblotting: Western blots were performed as described previously. Briefly, protein lysates (30 μg) were subjected to SDS-PAGE and transferred to nitrocellulose membranes. After blocking with 5% milk in TBST buffer for 30 min at room temperature, the membranes were incubated overnight at 4° C. with the Indicated primary antibody in 3% BSA in TBST. Specific proteins were detected with the corresponding HRP conjugated secondary antibody using enhanced chemiluminescence (GE Lifesciences, Piscataway, NJ)."}, "[3]": {"system": "PANC1 pancreatic cancer cells", "assay": "Growth inhibition of PANC1 pancreatic cancer cells", "assay_type": "cell-based", "description": "(§1) Cell growth assay: Tumor cells were seeded into 48 well plates (1000 cells/well) and treated with varied agents. The Incucyte real-time imaging system (Incucyte) was used to measure cell proliferation using a non-label cell monolayer confluence approach. The images were captured every 12 h. Graphs were generated using an integrated confluence metric as an alternative for cell numbers. At the end of the study cell growth was visualized by crystal violet staining.\nBecause of ease of growth, PANC1 pancreatic cancer cells were used to test the activity of derivatives of VBT-5445 (FIG. 14). […] Using a doxycycline inducible Pim kinase vector in these tumor cells, this inhibition of phosphorylation was proportional to the level of Pim in these cells (FIG. 9). […] Inhibition of mTORC1 is known to stimulate the feedback activation of mTORC2 leading to AKT phosphorylation. […] The effect of these compounds on mTORC1 and 2 was still evident in PC3-LN4 cells that contained a knockout (KO) using CRISPR/CAS9 of either TSC2 or DEPDC5 (FIG. 12, lanes 4-9). TSC2 KO activated the Rheb GTPase while DEPDC5 KO activated the RAG GTPase both of which stimulate mTORC1 activity. Thus, GRG compounds were capable of inhibiting mTORC1 activity even when this kinase was highly activated."}, "[4]": {"system": "PC3-LN4 cells", "assay": "P-body (PB) number in PC3-LN4 GFP-EDC3 cells", "assay_type": "cell-based, human", "conditions": "6 h", "description": "(§2) FIGS. 7A-7I show inhibition of VBT5445 (VBT) on Pim1 and EDC3 binding and phosphorylation. FIG. 7A: In vitro co-precipitation (Co-PPT) assay was performed with recombinant EDC3 and biotinylated Pim1 using Streptavidin beads with increasing concentrations of the Pim inhibitor VBT5445 (VBT). FIG. 7B: Kinase assays were performed with recombinant EDC3 and Pim1 with increasing concentrations of VBT. FIG. 7C: Cell lysates from PC3-LN4 cells cultured with DMSO, 10 μM VBT, 3 μM AZD5363 (AKTi) and the combination for 6 hrs were subjected to western blotting (WB). […] WBs were performed using the indicated antibodies. FIG. 7E: PC3-LN4 cells were seeded into 48 well plate and incubated with either DMSO, VBT, AZD5363 or the combination, for 4.5 days. A real-time imaging system (IncuCyte™) was used to measure cell proliferation using a non-label cell monolayer confluence approach. FIG. 7F-7H: GFP image in PC3 LN4 GFP EDC3 expressing cells treated with PIMi: VBT (5 μM) and VBT (5 μM)+AZD5363 (3 μM) for 6 hrs.\nTo measure PB numbers, PC3-LN4 PCa cells containing a CRISPR/Cas total knock-out of EDC3 were stably transduced with GFP-EDC3. When localized in PBs, GFP spots could be quantified. PBs were quantified at the University of Colorado Center for Drug Discovery using an Opera Phenix Plus high content screening system (PerkinElmer) Perkin Elmer G3 robotic system after drug treatment. Assays were carried out in quadruplicate and the mean number of PBs per cell and cell area calculated. An example of this assay is shown using […] buffered saline (HBSS) to induce PB formation.\nImmunofluorescence: Immunofluorescence (IF) staining was performed on PC3-LN4 cells stably expressing EDC3-GFP. 1×10^4 cells were seeded in each chamber of an 8 well chamber slide (Nunc Lab-Tek II Chamber Slide System, Life Technologies) and cultured for 48 h. After attaching to the chamber slides cells were treated with DMSO, VB-5445 ([…]), AZD5363 (3 μM), or the combination for 6 h. Cells were then fixed with 4% paraformaldehyde in PBS for 15 min and subsequently permeabilized with 0.2% Triton X-100 in PBS. Cells were stained with diluted DAPI (1:4000) in 1% nor-mal goat serum in PBS. Cells were mounted with Prolong Gold Antifade mounting medium (Molecular Probes)."}, "[5]": {"biological_target": "Pim1 (Homo sapiens, UniProt P11309)", "sequence (P11309 whole entry)": "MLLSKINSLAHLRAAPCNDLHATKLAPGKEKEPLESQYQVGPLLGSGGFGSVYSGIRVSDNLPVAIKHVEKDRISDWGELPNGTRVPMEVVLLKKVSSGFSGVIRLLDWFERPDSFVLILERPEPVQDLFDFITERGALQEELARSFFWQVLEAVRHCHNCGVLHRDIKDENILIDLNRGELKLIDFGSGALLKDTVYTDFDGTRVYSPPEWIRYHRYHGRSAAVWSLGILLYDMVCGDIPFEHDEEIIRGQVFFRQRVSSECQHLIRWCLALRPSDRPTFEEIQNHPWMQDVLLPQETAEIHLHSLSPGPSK", "assay": "Kinase assay with purified Pim1 and EDC3 (EDC3 S161 phosphorylation)", "assay_type": "biochemical", "conditions": "in vitro, FIG. 8", "description": "as §2\nComputer screening followed by surface plasmon resonance (SPR) yielded a lead compound VBT-5445 that can interact with the Pim-1 protein kinase. Enhancer of mRNA Decapping 3 (EDC3) is a substrate of the Pim kinase that regulates the decapping of messenger RNA, and its activity is modulated by Pim mediated phosphorylation. […]"}, "[6]": {"system": "PC3-LN4 cells", "assay": "Cell growth assay (IncuCyte) in PC3-LN4 prostate cancer cells", "assay_type": "cell-based, human", "conditions": "combination with AZD5363 or BKM120", "description": "as §2, §1"}},
  "note": "Entries after “also recorded” stand apart in the source; their conditions may differ. Read-outs that look alike come from different tables or passages of the source.",
  "data": [
    {"smiles": "O=c1c(CNCc2cc(Br)ccn2)cc2ccc(Cl)cc2n1CCOc1ccccc1", "note": "[GRG-1-34, 3-((((4-bromopyridin-2-yl)methyl)amino)methyl)-7-chloro-1-(2-phenoxyethyl) quinolin-2 (1H)-one]", "values": [
      {"measurement": "A549 lung cancer growth", "setting": "[1]", "value": "Inhibition"},
      {"measurement": "A549 lung cancer growth", "setting": "[1]; listed as VBT 1-34", "value": "shows activity"},
      {"measurement": "Pim kinase activity: Pim substrate phosphorylation (IRS1, elF4B, EDC3)", "setting": "[2]", "value": "decreased Pim substrate phosphorylation"},
      {"measurement": "Pim kinase activity: Pim substrate phosphorylation (IRS1, elF4B, EDC3)", "setting": "[2]; listed as GRG 1-34", "value": "suppresses Pim kinase activity"},
      {"measurement": "Pim kinase activity: Pim substrate phosphorylation (IRS1, elF4B, EDC3)", "setting": "[2]; listed as VBT 1-34", "value": "inhibits Pim activity"},
      {"measurement": "growth inhibitory activity against PANC1 pancreatic cancer cells", "setting": "[3]", "value": "most active"},
      {"measurement": "growth inhibitory activity against PANC1 pancreatic cancer cells", "setting": "[3]; listed as VBT 1-34", "value": "inhibits the growth; also recorded: shows activity"},
      {"measurement": "number of P-bodies, with AKT inhibitor AZD5363 added", "setting": "[4]; combination with AZD5363 (3 μM), listed as VBT 1-34", "value": "further increased the number of P-bodies; also recorded: further increases P-bodies"},
      {"measurement": "number of P-bodies", "setting": "[4]; compound alone", "value": "increases the number of P-bodies"},
      {"measurement": "inhibition of the ability of Pim to phosphorylate EDC3", "setting": "[5]", "value": "inhibit the ability of Pim to phosphorylate EDC3"},
      {"measurement": "prostate cancer (PC3-LN4) growth, in combination with AKT/PI3K inhibitor", "setting": "[6]", "value": "enhanced"}
    ]}
  ]
}
